In US8557804B2, “Nicotinic receptor agonists for the treatment of inflammatory diseases” (priority 2002, dated 2013):
pEC50: −log10 of the molar value.

Tests used:
[1] = system: TNF release by human blood monocytes; test: cells; assay type: cell-based
Procedure: Human monocytes were isolated from the blood of asthmatic patients by Ficoll-paque density gradient, let to adhere to tissue culture plates and stimulated with LPS (100 ng/ml) for 18 hours at 37° C. with or without increasing concentrations of nicotine. The release of TNF, a potent pro-inflammatory mediator, was measured in the cell culture supernatant by the ELISA method. Results are expressed as a percentage release from LPS-stimulated untreated cells (FIG. 28).
Tumor necrosis factor (TNF) is a mediator released in inflammatory states.
Human blood monocytes were isolated by Ficoll-paque density gradient, let to adhere to tissue culture plates and stimulated with LPS (100 ng/ml) for 18 hours at 37° C. with or without increasing concentrations of nicotine analogues.

[2] = system: lung inflammation in dogs sensitized to Ascaris suum; test: Dog asthma model (Ascaris suum), cellular inflammation in bronchoalveolar lavages; assay type: in vivo; settings: ASM-002 8 mg/kg (4 mg/kg 2× day in the food); prednisone 1 mg/kg 1× day; n=12
Procedure: (§1) In this model 12 dogs naturally sensitized to the roundworm Ascaris suum were used in a cross-over study design. Four groups of 3 dogs were randomly formed, exposed to the allergen, and each animal was left either untreated or received alternatively, ASM-002 (4 mg/kg 2× day in the food), or prednisone (1 mg/kg 1× day in the food), the most commonly used corticosteroid drug used to treat inflammation in asthma.
Cellular inflammation was evaluated in the bronchoalveolar lavages.

[3] = system: lung resistance in hyperresponsive dogs; test: Dog model of lung hyper-responsiveness to metacholine; assay type: in vivo; settings: 12 hyperresponsive dogs
Procedure: as §1
Hyper-responsiveness is described as the capacity of the lung to react (to increase lung resistance) to a non-specific external stimuli like metacholine or to allergens A hyper-responsive allergen-sensitized dog (asthmatic) will react to lower concentrations of metacholine compared to a non allergic dog. Similarly, improvement in lung hyper-responsiveness is shown by an increase in metacholine concentrations necessary to induce the same level of lung resistance.
Increasing concentrations of metacholine were administered with or without treatment with ASM-002 or Prednisone™ and lung resistance recorded.

dog bronchial rings = test: Isometric study on dog bronchial rings pre-contracted with metacholine; settings: cumulative doses, p=0.004
Procedure: (§2) As described previously, tracheal or bronchial rings were mounted isometrically to force transducers in organ baths containing Krebs bicarbonate solution at 37° C. and bubbled with 95% O2-5% CO2, pre-contracted with submaximal concentration of metacholine cumulative doses of ASM-002 added. Changes of tension are recorded. Results are expressed as a percentage of maximal contraction for mouse (FIG. 34, p=0.002), dog (FIG. 35, p=0.004) and human (FIG. 36)

[4] = system: LTC4 release by blood eosinophils; test: LTC4 production by PAF-stimulated blood eosinophils (enzyme immunoassay); assay type: cell-based, human
Procedure: Blood eosinophils, the most increased inflammatory cells in asthma, were isolated by negative selection using bead-conjugated anti-CD16 monoclonal antibody and magnetic activating cell sorting. Cells were pre-Incubated for 18 hours with the various DMPP analogs and then stimulated with 1 µM platelet-activating factor (PAF) to produce LTC4 which was measured by enzyme immunoassay.
Human blood eosinophils were isolated from blood of asthmatic patients, stimulated in vitro with platelet activating factor (PAF) to produce large amounts of LTC4, and treated or not with 80 μM ASM-002.

[5] = system: allergic inflammation of the lungs in ovalbumin-sensitized mice; test: Ovalbumin-sensitized mouse asthma model, BAL cell counts; assay type: in vivo, Balb/c mice; settings: Mus musculus, 72 h; intra-nasal 0.5 to 4 mg/kg/d for 3 days, n=8; read-out: ED50, cellular inflammation in the lungs (BAL cells)
Procedure: Groups of Balb/c mice were sensitized by intra-peritoneal injection of 20 μg OVA protein (chicken egg albumin; Sigma-Aldrich) emulsified in 2 mg aluminum hydroxide in PBS. After 4 weeks, challenge doses of 1.5%/50 μl OVA were administered intranasally. The challenge was performed daily for 3 consecutive days and then the mice assessed for allergic inflammation of the lungs 24 h after the last aerosol exposure. Groups of mice were treated with various concentrations of DMPP during the challenge period. Broncho-alveolar lavage (BAL) was performed and the fluid centrifuged at 400 g to separate cells from liquid.
Ovalbumin-sensitized mice (n=8) were challenged with the allergen and simultaneously treated intra-nasally with increasing concentrations of ASM-002 (0.5 to 4 mg/kg/d) for 3 days. The number of cells recovered by broncho-alveolar lavage was used as a measure of lung inflammation.

human bronchial rings = test: Isometric study on human bronchial rings pre-contracted with metacholine; settings: cumulative doses
Procedure: as §2

[6] = system: mouse tracheal airway smooth muscle; test: Isometric study on isolated mouse tracheas pre-contracted with metacholine; settings: cumulative doses, p=0.002
Procedure: Tracheal rings were mounted isometrically to force transducers in organ baths containing Krebs bicarbonate solution at 37° C. and bubbled with 95% O2-5% CO2, pre-contracted with submaximal concentration of metacholine (10^−5) and cumulative doses of the analogs were added to the baths. Changes of tension are recorded. Results are expressed as a percentage of maximal contraction (FIG. 29).
as §2

[7] = system: lung resistance after metacholine challenge; test: Airway hyper-reactivity / lung resistance to metacholine in asthmatic mice (FlexiVENT); assay type: in vivo; settings: ASM-002 4 mg/kg intra-nasal 3 days and 10 minutes prior to challenge; Salbutamol 10 minutes before
Procedure: Airway hyper-reactivity (AHR) in response to metacholine was measured in anesthetized, tracheotomized, ventilated mice using a computer-controlled ventilator (FlexiVENT™).
Increasing doses of metacholine (0 mg/kg-32.5 mg/kg) were administered through the jugular vein.
Lung response to a broncho-constrictive agent, metacholine, was measured by a Flexi-vent® apparatus. Ovalbumin-sensitized animals were treated intra-nasally with ASM-002 (4 mg/kg) during 3 days and 10 minutes prior to the metacholine challenge and compared to untreated OVA-sensitized animals. A negative control group of un-sensitized animals and a positive control group that received Salbutamol (Ventolin) 10 minutes before the metacholine challenge were also included.

Structure (SMILES): C[N+]1(C)CCCN(c2ccccc2)CC1 [ASM-002, 1,1-dimethyl-4-phenylhomopiperazinium iodide]
- TNF release ([1]; 40 μM, mean of 5 subjects): inhibits TNF release
- pEC50 ([1]; Monocyte, LPS-stimulated human blood monocytes, n=6, read-out: EC50, inhibition of TNF release): 5.52
- cellular inflammation in the lungs of asthmatic dogs [2]: inhibits significantly
- dogs with decreased lung resistance / improved hyper-responsiveness [3]: 7 out of 12
- relaxing effect on pre-contracted dog bronchi (dog bronchial rings): relaxing effect
- LTC4 production ([4]; 80 μM, PAF, eosinophils of asthmatic patients, 6 patients, p=0.0007): significant inhibition
- LTC4 ([4]; eosinophils pre-incubated 18 hours with analog, PAF stimulated, untreated 1725.80): 246.40 pg/mL
- ED50 [5]: 0.71 mg/kg
- relaxing effect on pre-contracted human bronchi (human bronchial rings): relaxing effect
- relaxing effect on pre-contracted mice tracheas [6]: relaxing effect
- lung resistance induced by metacholine compared to untreated OVA-sensitized mice [7]: significant reduction (return to baseline levels)
